Laboratory results reported in US20100004248A1, “Use of a Nitric Oxide Synthase Modulator for the Treatment of Cardiac Indications” (priority 2005, published 2010).

What was measured:
[1] = tested on: intact heart, beta-adrenergic stimulation by ISO; test: Contractility response of intact heart to isoproterenol (ISO); assay type: in vivo, mouse
Description: Regulation of acute beta-adrenergic stress by PDE5a inhibition (resulting in a rise in cGMP and activation of protein kinase G) requires the activity of nitric oxide synthase (NOS). […] This can be offset by chronic distal activation of the NO target protein soluble guanylate cyclase 9sGC). At the left are bars depicting the contractility response of an intact heart to ISO before and after co-administration of SIL. The ISO response is normally blunted by nearly 80%. The middle bars show data from mice with NOS inhibited by L-NAME (1 mg/L in drinking water). […] However, if one continues to treat hearts with the soluble guanylate cyclase activator (BAY 41-8543) for a week-all the while continuing NOS inhibition with L-NAME, the ability of SIL to suppress adrenergic stimulation is restored.

Protein kinase G = Protein kinase G activity in 9-week TAC hearts; assay type: in vivo, mouse; settings: treatment during weeks 5-9
Description: Protein kinase G activity increased nominally over time in 9-week TAC hearts, although this falls just short of statistical significance. […] Rather, the prior data supports an effect on reducing oxidant stress and re-coupling nitric oxide synthase.

[2] = tested on: Adult myocytes isolated from wild-type C57/B16 mouse hearts; test: Sarcomere shortening of isolated adult myocytes exposed to isoproterenol; assay type: cell-based

CCCc1nn(C)c2c(=O)[nH]c(-c3cc(S(=O)(=O)N4CCN(C)CC4)ccc3OCC)nc12 [Sildenafil, sildenafil]
blunting of ISO contractility response ([1]; intact heart, co-administration of SIL): ~80%
inhibition of ISO response with NOS inhibited ([1]; mice given L-NAME 1 mg/L in drinking water for 1 week): no longer inhibited
PKG activity (Protein kinase G): significantly increased
ability to blunt the isoproterenol response ([2]; myocytes from hypertrophied and dilated hearts (3-4 weeks TAC), p=0.04): markedly diminished
blunting of isoproterenol-increased sarcomere shortening ([2]; wild-type myocytes, isoproterenol 10 micromolar, sildenafil 0.1): ~25%
